Measured values reported in patent US7217511B2, “Methods of increasing antibiotic production in Streptomyces by deletion of the scbA gene” (Plant Bioscience Limited, priority 2000, dated 2007).

How the values were obtained:
[1] = tested on: ScbR
[2] = tested on: S. coelicolor M751 (ΔscbA)
[3] = tested on: S. coelicolor M752 (ΔscbR)
Experimental: (§1) Bioassay using spore suspension of M145(top), M751(left bottom) and M752(right bottom) as indicator strain and spotted with 1 μg of SCB1. The plates were incubated at 30° C. for 20 h (left panel) or 40 h (right panel).
(§2) γ-butyrolactones were isolated from liquid or solid media by extracting the culture supernant or the agar with ethylacetate. The ethylacetate was evaporated and the sample was resuspended in 100% methanol for use in a bioassay or for HPLC analysis. Bioassay and HPLC analysis were conducted as described previously (Takano et al., 2000).

[4] = tested on: S. coelicolor M751 (ΔscbA); remark: listed apart in the source
Experimental: as §1, §2

[5] = tested on: S. coelicolor M145
Experimental: as §1, §2

ScbR, sequence (as listed by the source): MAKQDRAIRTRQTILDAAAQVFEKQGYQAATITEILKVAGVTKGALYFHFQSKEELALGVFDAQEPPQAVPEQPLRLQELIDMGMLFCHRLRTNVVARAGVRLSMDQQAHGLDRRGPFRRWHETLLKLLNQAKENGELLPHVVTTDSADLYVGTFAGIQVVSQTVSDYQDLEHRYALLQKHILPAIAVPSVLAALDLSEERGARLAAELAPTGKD

“2-isocaryloyl-3R-hydroxymethyl-γ-butyrolactone [A-factor]” was tested, and the “Formation of the DNA-protein complex (DNA-binding activity of ScbR)” value [1] was “failed to inhibit”.

With `CC(C)CCCC[C@@H](O)[C@@H]1C(=O)OC[C@H]1CO` [SCB1] the “Level of scbR transcription” value [2] was “marked increase”, the scbA transcription [2] was “not restored” and the “Response to exogenous SCB1 (antibiotic production in lawn)” value [3] was “did not respond”. For the same compound, the “Effect of high concentrations of SCB1 on antibiotic production (lighter halo around the point of application)” value [4] was “inhibitory effect” and the “Response to exogenous SCB1 (antibiotic production in lawn)” value [5] was “responded in the expected way”.
